# Non-standard residues stand in square brackets, D forms with d. *: point of attachment. ACC = NC(=O)Cc1cc(=O)oc2cc(N*)ccc12; Abu = CC[C@H](N)C(=O)O
# Experiments:
# Type in all cases: biochemical
# MALT1 [1] = target: T1, MALT1 (Homo sapiens, UniProt Q9UDY8); assay: Kinetic assay of ACC fluorogenic substrates (kcat, Km, kcat/Km)
# T1 sequence (Q9UDY8 1-824): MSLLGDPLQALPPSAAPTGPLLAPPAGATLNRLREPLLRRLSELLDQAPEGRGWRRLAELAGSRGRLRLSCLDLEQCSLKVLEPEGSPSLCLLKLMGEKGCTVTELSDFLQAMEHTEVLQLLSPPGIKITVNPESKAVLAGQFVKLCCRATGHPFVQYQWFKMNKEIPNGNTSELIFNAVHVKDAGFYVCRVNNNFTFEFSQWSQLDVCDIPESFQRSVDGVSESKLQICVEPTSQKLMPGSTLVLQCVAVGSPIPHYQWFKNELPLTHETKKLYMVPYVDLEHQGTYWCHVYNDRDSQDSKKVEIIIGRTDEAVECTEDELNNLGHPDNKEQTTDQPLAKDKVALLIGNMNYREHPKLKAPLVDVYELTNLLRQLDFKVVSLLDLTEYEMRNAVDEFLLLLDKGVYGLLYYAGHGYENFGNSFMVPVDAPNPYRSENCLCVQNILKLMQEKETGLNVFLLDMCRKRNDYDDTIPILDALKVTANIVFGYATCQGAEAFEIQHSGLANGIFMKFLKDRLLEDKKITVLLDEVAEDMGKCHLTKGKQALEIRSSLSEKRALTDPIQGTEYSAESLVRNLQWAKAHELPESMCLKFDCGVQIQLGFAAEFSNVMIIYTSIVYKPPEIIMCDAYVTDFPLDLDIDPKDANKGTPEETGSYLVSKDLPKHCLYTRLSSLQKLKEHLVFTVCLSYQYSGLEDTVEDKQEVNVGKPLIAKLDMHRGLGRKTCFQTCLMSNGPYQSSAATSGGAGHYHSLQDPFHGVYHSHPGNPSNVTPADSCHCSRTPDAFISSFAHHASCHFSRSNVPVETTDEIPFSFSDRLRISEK
# Method: Figure 2 MALT1 substrate activity. Panel a. kcat/Km values for MALT1 substrates compared with that of the reference substrate (ALVSR). MALT1 was incubated at 37 °C for 30 minutes and added to the wells containing the substrate at varying concentrations. Relative fluorescence units were measured over time at excitation/emission wavelengths of 355/460 nm for at least 10 minutes. The data represent averages of three separate measurements, and error bars represent standard deviations. Panel b. Structure of our best (lower panel) and the reference (upper panel) MALT1 fluorogenic substrate.
# (§1) All kinetic assays were performed with a Spectra Max Gemini XPS spectrofluorimeter (Molecular Devices) and 96-well Corning plates. The measurement characteristics were as follows: 37 °C, excitation/emission wavelength of 355/460 nm, cutoff of 455 nm, and varying concentrations of substrates and enzyme. The assay buffer was prepared at 23 °C and contained 50 mM HEPES (2-[4-(2-hydroxyethyl)piperazin-1-yl]ethanesulfonic acid), 100 mM NaCl, 0.9 M sodium citrate and 10 mM dithiothreitol (DTT) (pH 7.5). MALT1^FL or MALT1^CD were preincubated for 30 minutes at 37 °C before being added to wells containing substrate. Next, the increase in fluorescence was recorded over the time. Only the linear portions of the curves were used for calculations. The kcat and Km values were calculated using GraphPad Prism and Microsoft Excel software. All measurements were repeated three times, and the data presented are averages of these replicates. […]
# was carried out after each coupling and Fmoc deprotection step. The N terminus was protected with an acetyl group using 5 eq AcOH, 5 eq HBTU, and 5 eq DIPEA in DMF.
# After solvent removal, the resin was washed six times with DMF in order to remove excess reagents, three times with DCM, and three times with MeOH and then dried over P2O5 and cleaved from the resin with a TFA/TIPS/H2O mixture (%, v/v/v, 95:2.5:2.5).
# The crude product was purified by HPLC and lyophilized. The purity of each substrate was confirmed by analytical HPLC, and each substrate was analyzed using HRMS.
# (§2) Substrates were dissolved in peptide-grade DMSO to a concentration of 20 mM and stored at -80°C until use.
# (§3) Calculation of kcat, Km and kcat/Km values
# (§4) Kinetic parameters were calculated under the same conditions as the library with slight modification. The total reaction volume in each well was 100 μL. The substrate and enzyme concentrations used ranged from 3.90 μM to 150 μM and 40 μM, respectively.
# (§5) The increase in relative fluorescence units was monitored for 20-30 minutes, and only the linear parts of the curves were used to determine the rate of the reaction. The kcat and Km values were calculated using GraphPad Prism software. All measurements were repeated three times using the appropriate concentration of the enzyme, and the data presented are averages of these repetitions.
# MALT1 [2] = target: T1, MALT1; assay: P5 library screening (Ac-P5-LVSR-ACC); details: 100 nM MALT1, 1 µM substrate, 37 °C; 355/460 nm; average of three
# Method: Figure 1 MALT1 S5-S2 substrate preferences. Panel a. Substrate preferences of the MALT1 S4-S2 pockets; 100 μM library component was treated with 130 nM active site-titrated MALT1 in assay buffer containing 50 mM HEPES, 100 mM NaCl, 0.9 M sodium citrate and 10 mM DTT at pH 7.5. Panel b. Structures of the preferred amino acid residues at the P4-P2 positions of MALT1. Panel c. MALT1 P5 specificity. Specificity profile of MALT1 was determined with the library of general structure Ac-P5-LVSR-ACC; 100 nM MALT1 was incubated at 37 °C for 10 minutes, followed by the addition of 1 µM substrate. Relative fluorescence units were measured over time at excitation/emission wavelengths of 355/460 nm for at least 10 minutes. The data represent averages of three separate measurements, and error bars represent standard deviations.
# MALT1^FL = target: T2, MALT1^FL (Homo sapiens, UniProt Q9UDY8); assay: Kinetic assay of IQF substrates, full-length enzyme; details: IQF substrate, ACC/Lys(Dnp) pair; 37 °C, assay buffer pH 7.5; 355/460 nm; average of three
# T2 construct: treating full-length MALT1 (MALT1^FL), the MALT1 catalytic domain (MALT1^CD)
# T2 sequence (Q9UDY8 1-824): T1 sequence (Q9UDY8 1-824)
# Method: as §1, §2, §3, §4, §5
# MALT1^CD = target: T3, MALT1^CD (Homo sapiens, UniProt Q9UDY8); assay: Kinetic assay of IQF substrates, catalytic domain; details: IQF substrate, ACC/Lys(Dnp) pair; 37 °C, assay buffer pH 7.5; 355/460 nm; average of three
# T3 construct: the MALT1 catalytic domain (MALT1^CD)
# T3 sequence (Q9UDY8 348-562 limits assumed): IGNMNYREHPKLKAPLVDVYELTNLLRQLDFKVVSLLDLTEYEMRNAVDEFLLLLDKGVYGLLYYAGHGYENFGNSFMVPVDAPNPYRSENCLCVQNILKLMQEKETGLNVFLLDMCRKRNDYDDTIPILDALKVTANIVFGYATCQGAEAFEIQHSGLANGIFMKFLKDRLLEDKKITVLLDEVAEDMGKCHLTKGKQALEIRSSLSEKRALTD
# Method: as §1, §2, §3, §4, §5
# [3] = 37 °C, 50 mM HEPES, 100 mM NaCl, 0.9 M sodium citrate, 10 mM DTT, pH 7.5, substrate 3.90-150 μM, ACC fluorescence 355/460 nm, average of three measurements
substance,measurement,setting,value
Ac-[Abu]LVSR-{ACC} (SMILES CC[C@H](NC(C)=O)C(=O)N[C@@H](CC(C)C)C(=O)N[C@H](C(=O)N[C@@H](CO)C(=O)N[C@@H](CCCNC(=N)N)C(=O)Nc1ccc2c(CC(N)=O)cc(=O)oc2c1)C(C)C) [Ac-Abu-LVSR-ACC],Km,MALT1 [1]; [3],22.15 ± 0.01 µM
same,kcat,MALT1 [1]; [3],0.19 ± 0.0295 s⁻¹
Ac-Y(Bzl)-L-V-S-R-ACC-OH,activity at the P5 position in the library screen,MALT1 [2],least active
Ac-Phe(guan)-LVPR-ACC-OH,kcat/Km,MALT1 [1]; [3],"28,000 s^−1M^−1"
same,rate of substrate hydrolysis (kcat/Km),MALT1 [1]; estimated,"28,000 M^−1s^−1"
same,kcat/Km relative to the best reported substrate to date,MALT1 [1]; times higher,approximately 3.5 times
Ac-KLVSR-{ACC} (SMILES CC(=O)N[C@@H](CCCCN)C(=O)N[C@@H](CC(C)C)C(=O)N[C@H](C(=O)N[C@@H](CO)C(=O)N[C@@H](CCCNC(=N)N)C(=O)Nc1ccc2c(CC(N)=O)cc(=O)oc2c1)C(C)C) [Ac-Lys-LVSR-ACC],Km,MALT1 [1]; [3],25.5 ± 3.56 µM
same,kcat,MALT1 [1]; [3],0.12 ± 0.0010 s⁻¹
H2N-ACC-Ahx-A-L-V-S-R–G-Nva-K(Dnp)G-OH [Substrate M1],"kcat/Km, MALT1^FL",MALT1^FL,4.8 * 10^3 ± 362 M^−1s^−1
same,"kcat/Km, MALT1^CD",MALT1^CD,3.5 * 10^3 ± 165 M^−1s^−1
H2N-ACC-Ahx-A-L-V-S-R–G-Thr-K(Dnp)G-OH [Substrate M3],"kcat/Km, MALT1^FL",MALT1^FL,6.3 * 10^3 ± 311 M^−1s^−1
same,"kcat/Km, MALT1^CD",MALT1^CD,2.8 * 10^3 ± 101 M^−1s^−1
"Ac-ALVSR-{ACC} (SMILES CC(=O)N[C@@H](C)C(=O)N[C@@H](CC(C)C)C(=O)N[C@H](C(=O)N[C@@H](CO)C(=O)N[C@@H](CCCNC(=N)N)C(=O)Nc1ccc2c(CC(N)=O)cc(=O)oc2c1)C(C)C) [Ac-Ala-LVSR-ACC, reference compound]",Km,MALT1 [1]; [3],9.45 ± 2.46 µM
same,kcat,MALT1 [1]; [3],0.089 ± 0.033 s⁻¹

# From publication PMC6207715, “Determination of extended substrate specificity of the MALT1 as a strategy for the design of potent substrates and activity-based probes” (Scientific Reports, 2018)
